Earlier results as cited in patent US20240066028A1, “COMPOSITIONS FOR IMPROVED DELIVERY OF CGRP INHIBITORS” (Pfizer Ireland Pharmaceuticals, priority 2020, published 2024).

Details: FAO/WHO report; cited from earlier work

In the case of sucrose dodecanoate, the NOAEL is given as 20-30 grams/kilogram/day.
